# From patent US7402606B2, “Derivatives of 1-(oxoaminoacetyl) pentylcarbamate as cathepsin K inhibitors for the treatment of bone loss” (SmithKline Beecham Corporation, priority 2002, dated 2008)
# Read-outs that look alike come from different tables or passages of the source.
# What was measured:
# Assay type in all cases: biochemical
# human cathepsin K = target: T1, human cathepsin K (Homo sapiens, UniProt P43235); experiment: Cathepsin K inhibition assay, human recombinant enzyme, fluorogenic substrate Cbz-Phe-Arg-AMC; conditions: read-out: h Cat K IC50
# T1 construct: The proform of cathepsin K was converted to mature cathepsin K by brief exposure to pH 4; made in house; host or cells: baculovirus; Trichoplusia ni High Five cells (virus raised in Sf-9)
# T1 sequence (P43235 115-329): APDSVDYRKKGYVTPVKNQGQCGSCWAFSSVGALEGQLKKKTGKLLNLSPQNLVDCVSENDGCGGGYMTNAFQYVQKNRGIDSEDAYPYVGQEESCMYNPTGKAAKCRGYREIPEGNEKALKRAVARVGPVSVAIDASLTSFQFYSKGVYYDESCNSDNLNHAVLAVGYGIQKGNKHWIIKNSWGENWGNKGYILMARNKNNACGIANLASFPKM
# Procedure, shortened: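 Recombinant human cathepsin K (baculovirus/insect-cell proform, activated at pH 4 with 5 mM L-cysteine) assayed with 10 μM Cbz-Phe-Arg-AMC, 10% DMSO, 30 °C.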
# human cathepsin B = human cathepsin B (Homo sapiens, UniProt P07858); experiment: Cathepsin B inhibition assay, enzyme from human liver tissue, Cbz-Phe-Arg-AMC; conditions: Table 2, human cathepsin B; read-out: h Cat B IC50
# Description: (§1) All assays for cathepsin K were carried out with human and rat recombinant enzyme. Assays for cathepsins S ? V were also carried out with human recombinant enzyme. Assays for human cathepsins B, H, and L were carried out with enzyme, purchased from Athens Research and Technology, Inc., prepared from human liver tissue. Standard assay conditions for the determination of kinetic constants used a fluorogenic peptide substrate, typically (5S,8S)-13-amino-5-benzyl-13-imino-3-methylene-N-(4-methyl-2-oxo-2H-chromen-7-yl)-6-oxo-1-phenyl-2-oxa-4,7,12triazatridecane-8-carboxamide (Cbz-Phe-Arg-AMC), and were determined in 100 mM sodium acetate at pH 5.5 containing 10 mM dithiothreitol and 120 mM sodium chloride. […]
# (§2) All assays contained 10% dimethyl sulfoxide. […] Product fluorescence (excitation at 360 nm; emission at 440 nm, (except cathepsin H which used excitation at 340 nm; emission at 420 nm)) was monitored with a PerSeptive Biosystems Cytofluor II fluorescence plate reader. […]
# (§3) Potential inhibitors were evaluated using the progress curve method. […] For those compounds whose progress curves were linear, the enzymatic activity (RATE) was plotted against the concentration of test compound, including inhibitor concentration of zero ([I]=0), and the IC50 determined from a fit of equation 1 to the data, RATE=Vmax/(1+([I]/IC50)) (1) where Vmax is the best fit estimate of the maximal enzymatic activity. […]
# human cathepsin S = human cathepsin S (Homo sapiens, UniProt P25774); experiment: Cathepsin S inhibition assay, human recombinant enzyme, Cbz-Val-Val-Arg-AMC; conditions: Table 2, human cathepsin S; read-out: h Cat S IC50
# Description: as §1, §2, §3
# Sequence of human cathepsin S (P25774 115-331): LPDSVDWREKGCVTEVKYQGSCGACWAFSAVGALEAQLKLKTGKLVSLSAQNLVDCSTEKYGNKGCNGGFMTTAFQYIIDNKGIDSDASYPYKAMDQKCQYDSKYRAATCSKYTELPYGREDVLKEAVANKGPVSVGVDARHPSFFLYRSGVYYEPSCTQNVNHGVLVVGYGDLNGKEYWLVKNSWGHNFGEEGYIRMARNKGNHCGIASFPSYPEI
"IC50 (human cathepsin K; Table 1, human cathepsin K) [nM]","IC50 (human cathepsin K; Table 2, human cathepsin K) [nM]",IC50 (human cathepsin B) [nM],IC50 (human cathepsin S) [nM],SMILES
0.1 to 1,0.1 to 1,100 to 1000,1 to 10,"CCCC[C@H](NC(=O)O[C@@H]1CN(C(=O)Nc2ccc(C(F)(F)F)cc2)CC1(C)C)C(=O)C(=O)Nc1ccn[nH]1 [Example 71, (3S)-4,4-dimethyl-1-{[4-(trifluoromethyl)anilino]carbonyl}pyrrolidinyl (1S)-1-[oxo(1H-pyrazol-5-ylamino)acetyl]pentylcarbamate]"
0.1 to 1,0.1 to 1,100 to 1000,10 to 100,"CCCC[C@H](NC(=O)O[C@@H]1CN(c2nnc(C(F)(F)F)s2)CC1(C)C)C(=O)C(=O)Nc1ccn[nH]1 [Example 82, (3S)-4,4-Dimethyl-1-[5-(trifluoromethyl)-1,3,4-thiadiazol-2-yl]pyrrolidinyl-(1S)-1-[oxo(1H-pyrazol-5-ylamino)acetyl]pentylcarbamate]"
